# Tested on: common lambsquarters
# Assay: Field trial Zellwood, Fla.: damage rating on common lambsquarters, sprayed until runoff
# Format: in vivo
# Conditions: commercial burn down standard; improved by Day 3
# Method: FIG. 7 is a bar graph setting forth results from a field study on lambsquarters conducted in Florida in January of 2005. Ratings are based on 0 to 10 (no damage to dead). Statistical analysis is by Duncan's MRT (P<0.05).
# A field trial was conducted in Zellwood, Fla. The same formulation described in Example 1 was used in the Florida trial. All limonene treatments were made at a 3:1 ratio by volume, represented as water:herbicide formulation ratio, to provide a herbicide composition of 22% limonene (w/w %). Four reps per treatment were used; all treatments were randomly distributed within a rep. The weed species was common lambsquarters (1 to 2 feet in height). Treatments applied were pH 3, 7, 8 and 9 with and without a silicone surfactant, Silwet; each treatment was sprayed until runoff. The commercial burn down standard, Gramoxone (Paraquat) was included. Readings were taken at 1 and 2 hours, and 1, 3 and 7 days. […] Effects with Gramoxone (Paraquat) were first observed on day 1 and improved by Day 3. After the first 2 hours limonene effects were stabilized.
compound,measurement,value
"C[n+]1ccc(-c2cc[n+](C)cc2)cc1 [Gramoxone, Paraquat]",effects first observed,1 days

# — US8153561B2, “Limonene-containing herbicide compositions, herbicide concentrate formulations and methods for making and using same for organic production” (Cutting Edge Formulations, Inc., priority 2005, dated 2012)
